Test results as given in US8426649B2, “Cyclopropenones and the photochemical generation of cyclic alkynes therefrom” (University of Georgia Research Foundation, Inc., priority 2009, dated 2013).
Read-outs that look alike come from different tables or passages of the source.

Experiments:
[1] = literature values (Baskin 2007; Ning/Boons 2008), cited from earlier work
Jurkat cells [2] = test: Cell surface labeling detected by fluorescence intensity of cell lysates (avidin-FITC); assay type: cell-based, Human; details: for Incubation time at which labeling was reaching completion: time course
Description: Having established that light activation of cyclopropenones results in the clean formation of the corresponding dibenzocyclooctynes, which can undergo cycloadditions with azides (e.g., metal-free cycloadditions in preferred embodiments) to give corresponding triazoles, attention was focused on labeling living cell modified with azido groups. Thus, Jurkat cells were cultured in the presence of […] of peracetylated N-azidoacetylmannosamine (Ac4ManNAz) for 3 days to metabolically introduce N-azidoacetyl-sialic acid (SiaNAz) groups into glycoproteins and glycolipids. As a negative control, Jurkat cells were employed that were grown in the presence of peracetylated N-acetylmannosamine (Ac4ManNAc). The cells were exposed to 30 micromolar of compound 4b, 5b, and 6b for 1 hour at room temperature. In addition, cells and cyclopropenone 5b were exposed to light (350 nm) for 1 minute to form in-situ cyclooctyne 6b and then incubated for 1 hour at room temperature. Next, the cells were washed and stained with avidin-fluorescein isothiocyanate (FITC) for 15 minutes at 4° C. The efficiency of the two-step cell surface labeling was determined by measuring the fluorescence intensity of the cell lysates.
Jurkat cells were cultured in the presence of […] of peracetylated N-azidoacetylmannosamine (Ac4ManNAz) for 3 days to metabolically introduce N-azidoacetyl-sialic acid (SiaNAz) groups into glycoproteins. As a negative control, Jurkat cells were employed that were grown in the presence of peracetylated N-acetylmannosamine (Ac4ManNAc). The cells were exposed to 30 micromoles of compound 4b, 5b, and 6b for 1 hour at 37° C. In addition, cells and cyclopropenone 5b were exposed to light (350 nm) for 1 minute to form in-situ cyclooctyne 6b and then incubated for 1 hour at 37° C. Next, the cells were washed and stained with avidin-fluorescein isothiocyanate (FITC) for 15 minutes at 4° C. and the efficiency of the two-step cell surface labeling was determined by measuring the fluorescence intensity of the cell lysates.
Jurkat cells were seeded at a density of 75,000 cells mL^−1 in a total volume of 40 mL culture medium in the presence of peracetylated N-azidoacetylmannosamine (Ac4ManNaz; 25 micromolar final concentration) and grown for 3 days, leading to the metabolic incorporation of the corresponding N-azidoacetyl sialic acid (SiaNAz) into their cell surface glycoproteins. Control cells were grown in the presence of peracetylated N-acetylmannosamine (Ac4ManNac; 25 micromolar final concentration) for 3 days. Similarly, CHO cells were grown for 3 days in the presence of Ac4ManNaz (100 micromolar final concentration) or Ac4ManNac (100 micromolar final concentration).
Jurkat cells bearing azides and control cells were washed with labeling buffer (DPBS, pH 7.4 containing 1% FBS and 1% BSA), transferred to round bottom tubes (1×10^6 cells/sample) and incubated with the biotinylated compounds 4b, 5b, or 6b (0-100 micromolar) in labeling buffer for 0-90 minutes at room temperature. To activate 5b in situ, immediately after adding the compound to the cells, the cell suspension was subjected to UV light (350 nm) for 1 minute. The cells were washed three times with cold labeling buffer and then incubated with avidin conjugated with fluorescein (0.5 microgram/ml; Molecular Probes) for 15 minutes at 4° C. Following three washes and cell lysis in passive lysis buffer (Promega), cell lysates were analysed for fluorescence intensity (485 ex/520 em) using a microplate reader (BMG Labtech). Data points were collected in triplicate and are representative of three separate experiments. Fluorescence of Jurkat cell lysates was expressed as fluorescence (arbitrary units; AU) per 800,000 cells.

Jurkat cells [3] = test: Western blot analysis of cell surface labeling; assay type: cell-based, Human; details: 30 micromolar, 1 hour; 5b in-situ activated
Description: To identify the nature of the azide-labeled Jurkat glycoconjugates, cell lysates were analyzed by Western blot analysis (FIG. 8). Jurkat cells grown for 3 days in the presence of Ac4ManNAc or Ac4ManNAz were incubated with compounds in-situ activated 5b or 6b (30 micromolar) and then lysed. The Western blot was probed with an anti-biotin antibody conjugated to horseradish peroxidase (HRP). […] Furthermore, similar patterns of labeling were apparent after incubation with in-situ activated 5b and 6b.
Jurkat cells were harvested by centrifugation (5 minutes at 1,400 rpm) and resuspended as 5×10^6 cells/mL. The cell suspensions (250 microliters per sample) were incubated with biotin-conjugated alkynes 4b, 5b, and 6b (30 micromolar) or without compound as control for 1 hour. To activate 5b in situ, immediately after adding the compound to the cells, the cell suspension was subjected to UV light (350 nm) for 1 minute. The cells were washed (4×10 minutes) with cold DPBS, pH 7.4 containing FBS (1%) and lysed in passive lysis buffer. The cell lysates were clarified by centrifugation at 15,000 rpm for 15 minutes and the total protein content of the clear supernatants was assessed using the bicinchonic acid assay (BCA; Pierce Biotechnology). […]

Jurkat cells [4] = test: Measurement of cytotoxicity (trypan blue exclusion, MTT); assay type: cell-based, Human
Description: Cell viability was also examined after incubation with 5b with and without light activation followed by reincubation for 5 hours (see Examples). In both cases, the ability of the cells to reduce MTT to its insoluble formazan salt was […].
Cell viability and cell morphology were assessed by exclusion of trypan blue followed microscopic evaluation immediately after photoactivation or after reincubation of the labeled cells in cell culture medium for 5 hours or overnight. Viability was measured by quantifying the cellular ability to reduce the water-soluble tetrazolium dye 3-4,5-dimethylthiazole-2,5-diphenyl tetrazolium bromide (MTT) to its insoluble formazan salt (e.g., Sgouras et al., J. Mater. Sci.: Materials in Medicine 1990, 1:61-68). Data points were collected in triplicate and expressed as normalized values for control cells (100%).

CHO cells = test: Detection of cell labeling by fluorescence microscopy; assay type: cell-based, Chinese hamster
Description: Next, attention was focused on visualizing azido-containing glycoconjugates of living cells by confocal microscopy. Thus, adherent Chinese hamster ovary (CHO) cells were cultured in the presence of Ac4ManNAz (100 μM) for three days. The resulting cell surface azido groups were reacted with in situ generated 6b (30 μM) and then visualized with avidin-Alexa fluor 488.
CHO cells bearing azides and untreated control cells were transferred to glass coverslips and cultured for 36 hours in their original medium. Live CHO cells were treated with the biotinylated compound 5b (30 micromolar) in labeling buffer (DPBS, supplemented with FBS (1%)) for 1 hour at room temperature. To activate 5b in situ, immediately after adding the compound to the cells, the cells were subjected to UV light (350 nm) for 1 minute. Next, the cells were incubated with avidin conjugated with Alexa Fluor 488 (Molecular Probes) for 15 minutes at 4° C. Cells were washed 3 times with labeling buffer and fixed with formaldehyde (3.7% in PBS). The nucleus was labeled with the far red-fluorescent TO-PRO-3 dye (Molecular Probes). The cells were mounted with PermaFluor (Thermo Electron Corporation) before imaging. Initial analysis was performed on a Zeiss Axioplan2 fluorescent microscope. […] The step size, based on the calculated optimum for each objective, was between 0.25 and 0.5 micrometers. […]

[5] = 30 micromolar, 1 hour, room temperature, cells grown with Ac4ManNAz
[6] = 30 micromoles, 1 hour at 37° C., cells grown with Ac4ManNAz

| Structure (SMILES) | Reported rate of the reaction of cyclooctynes with benzyl azide [1] [M⁻¹ s⁻¹] | Cell surface labeling (fluorescence intensity of cell lysates) (Jurkat cells [2]; [5]) | Cell surface labeling (fluorescence intensity of cell lysates) (Jurkat cells [2]; [6]) | Incubation time at which labeling was reaching completion (Jurkat cells [2]; 30 micromolar) [min] | Glycoprotein labeling on Western blot (anti-biotin-HRP) (Jurkat cells [3]) | further results |
| --- | --- | --- | --- | --- | --- | --- |
| O=C(O)COC1CCC#CC(F)(F)CC1 (centres unmarked) [2-[(6,6-difluoro-4-cyclooctyn-1-yl)oxy]-acetic acid] | 0.076 | – | – | – | – | – |
| OC1Cc2ccccc2C#Cc2ccccc21 (centres unmarked) [4a, 11,12-didehydro-5,6-dihydro-dibenzo[a,e]cycloocten-5-ol] | 0.17 | – | – | – | – | Reported rate of the reaction of cyclooctynes with benzyl azide ([1]; listed as 11,12-didehydro-5,6-dihydro-dibenzo[a,e]cycloocten-5-ol): 0.0568 M⁻¹ s⁻¹ |
| O=C(CCCC[C@@H]1SC[C@@H]2NC(=O)N[C@@H]21)NCCOCCOCCOCCNC(=O)OC1Cc2ccccc2C#Cc2ccccc21 (stereo partly drawn) [4b, 11,12-didehydro-5,6-dihydrodibenzo[a,e]cycloocten-5-yl ester of 19-[(3aS,4S,6aR)-hexahydro-2-oxo-1H-thieno[3,4-d]imidazol-4-yl]-15-oxo-5,8,11-trioxa-2,14-diazanonadecanoic acid, reference compound] | – | strong labeling | strong labeling | 60 | – | – |
| CCCCOc1ccc2c(c1)CCc1cc(OCCOCCOC(=O)NCCOCCOCCNC(=O)CCCCC3SCC4NC(=O)NC43)ccc1-c1c-2c1=O (centres unmarked) [5b, 2-{2-[(9-Butoxy-1-oxo-6,7-dihydro-1H-dibenzo[a,e]cyclopropa-[c][8]annulen-4-yl)oxy]ethoxy}ethyl {2-[2-(2-{[5-(2-oxohexahydro-1H-thieno[3,4-d]imidazol-4-yl)pentanoyl]amino}ethoxy)ethoxy]ethyl}carbamate] | – | – | strong labeling | – | Significant glycoprotein labeling was only observed in lysates from cells grown in the presence of Ac4ManNAz | Cell surface labeling (fluorescence intensity of cell lysates) (Jurkat cells [2]; in the dark (no activation), 30 micromolar, 1 hour, room temperature): low fluorescence intensities; Cell surface labeling (fluorescence intensity of cell lysates) (Jurkat cells [2]; in the dark (no activation), 1 hour at 37° C.): low fluorescence intensities; Cell surface labeling (fluorescence intensity of cell lysates) (Jurkat cells [2]; in-situ activation, 350 nm 1 minute, then 1 hour at 37° C.): equally efficient cell labeling; Cell surface labeling (fluorescence intensity of cell lysates) (Jurkat cells [2]; in-situ activation, 350 nm 1 minute, then 1 hour at room temperature, 30 micromolar): equally efficient cell labeling; Cell viability and morphology (trypan blue exclusion) (Jurkat cells [4]; 30 micromolar 5b with and without UV light activation (1 minute at 350 nm)): no changes were observed; Ability of the cells to reduce MTT to formazan (Jurkat cells [4]; with and without light activation, reincubation for 5 hours): negligible; Staining (confocal microscopy, avidin-Alexa fluor 488) (CHO cells; in the dark, cells metabolically labeled with ManNAz): negligible staining |
| CCCCOc1ccc2c(c1)CCc1cc(OCCOCCOC(=O)NCCOCCOCCNC(=O)CCCCC3SCC4NC(=O)NC43)ccc1C#C2 (centres unmarked) [6b, 2-{2-[(9-Butoxy-5,6-didehydro-11,12-dihydrodibenzo[a,e][8]annulen-2-yl)oxy]ethoxy}ethyl {2-[2-(2-{[5-(2-oxohexahydro-1H-thieno[3,4-d]imidazol-4-yl)pentanoyl]amino}ethoxy)ethoxy]ethyl}carbamate] | – | strong labeling | – | 60 | Significant glycoprotein labeling was only observed in lysates from cells grown in the presence of Ac4ManNAz | Fluorescent reading compared with 4b (Jurkat cells [2]; at low concentration): somewhat higher fluorescent reading than 4b; Staining of azido-containing glycoconjugates (confocal microscopy, avidin-Alexa fluor 488) (CHO cells; in situ generated, 30 μM, cells grown with Ac4ManNAz 100 μM): staining was only observed at the cell surface |
